Test results: PubChem BioAssay (NCI)
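Interpolation was linear, between the two tested concentrations surrounding the appropriate level; five concentrations were tested over 48 hours in 96-well plates. Here, GI50 denotes the concentration required for 50% inhibition of growth. TGI is the concentration that stops growth completely.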

Legend:
Experiment in all cases: NCI anticancer screen, dose series, 48 h
CAKI-1 renal = tested on: CAKI-1 renal
HL-60(TB) leukemia = tested on: HL-60(TB) leukemia
IGROV1 ovarian = tested on: IGROV1 ovarian
LOX IMVI melanoma = tested on: LOX IMVI melanoma
M14 melanoma = tested on: M14 melanoma
MDA-MB-231 breast = tested on: MDA-MB-231 breast
NCI-H460 lung = tested on: NCI-H460 lung
SF-295 CNS = tested on: SF-295 CNS
SK-MEL-5 melanoma = tested on: SK-MEL-5 melanoma
SW-620 colon = tested on: SW-620 colon

| SMILES | TGI (CAKI-1 renal) | TGI (HL-60(TB) leukemia) | TGI (IGROV1 ovarian) | TGI (LOX IMVI melanoma) | TGI (M14 melanoma) | TGI (MDA-MB-231 breast) | TGI (NCI-H460 lung) | TGI (SF-295 CNS) | TGI (SK-MEL-5 melanoma) | TGI (SW-620 colon) | GI50 (CAKI-1 renal) | GI50 (HL-60(TB) leukemia) | GI50 (IGROV1 ovarian) | GI50 (LOX IMVI melanoma) | GI50 (M14 melanoma) | GI50 (MDA-MB-231 breast) | GI50 (NCI-H460 lung) | GI50 (SF-295 CNS) | GI50 (SK-MEL-5 melanoma) | GI50 (SW-620 colon) |
| --- | --- | --- | --- | --- | --- | --- | --- | --- | --- | --- | --- | --- | --- | --- | --- | --- | --- | --- | --- | --- |
| O=C(CC1C(=O)Nc2ccccc2S1=O)Nc1cccc(Cl)c1 (centres undefined) | 55.3 µM | > 64.2 µM | > 67.1 µM | > 100 µM | > 65 µM | 34.4 µM | > 83.2 µM | > 100 µM | > 46.1 µM | > 100 µM | – | – | – | – | – | – | – | – | – | – |
| CCOc1ccc2c(c1)/C(=C\C=C\C1CC(C)C3CC(OCC)CCC3N1CC)CC(C)N2CC (centres undefined) | 4.16 µM | 5.71 µM | 3.13 µM | 2.27 µM | 3 µM | 2.92 µM | 1.64 µM | 1.68 µM | 2.01 µM | 2.59 µM | 1.65 µM | 1.82 µM | 1.11 µM | 0.871 µM | 1.43 µM | 1.22 µM | 0.416 µM | 0.418 µM | 0.702 µM | 0.73 µM |
| COC(=O)c1c(-c2ccccc2)csc1NC(=O)c1c(-c2ccccc2)noc1C | > 100 µM | > 100 µM | > 100 µM | 3.56 µM | > 100 µM | > 100 µM | > 100 µM | > 21.5 µM | > 100 µM | > 100 µM | 0.745 µM | 1.32 µM | 3.44 µM | 0.24 µM | 6.86 µM | 7.66 µM | 0.177 µM | 0.598 µM | 0.185 µM | 0.705 µM |
| O=C(Nc1ccccc1Cl)c1ccc(NC2=C(Cl)C(=O)N(Cc3ccccc3)C2=O)cc1 | > 100 µM | 50.6 µM | > 100 µM | 32.6 µM | > 100 µM | 91.9 µM | > 100 µM | > 100 µM | > 100 µM | 58.1 µM | 43.5 µM | 22.5 µM | 46.4 µM | 17.9 µM | 79.4 µM | 31.3 µM | 33.3 µM | 26.6 µM | 32.7 µM | 25.4 µM |
| COC(=O)c1ccc2c(c1)nc(-c1ccc(Cl)cc1)n2-c1cc(C(C)(C)C)[nH]n1 | 12.8 µM | 19 µM | 25 µM | 14.5 µM | 8.22 µM | 27 µM | 8.81 µM | 8.98 µM | 5.1 µM | > 100 µM | 2.25 µM | 4.03 µM | 3.64 µM | 3.7 µM | 2.9 µM | 4.62 µM | 2.95 µM | 2.48 µM | 2.02 µM | 3.24 µM |
| Cn1c(=O)c(Cc2ccc(F)cc2F)cc2cnc(NC3CCOCC3)nc21 | > 25 µM | > 25 µM | > 25 µM | > 25 µM | > 25 µM | > 25 µM | > 25 µM | > 25 µM | > 25 µM | > 25 µM | > 19.4 µM | > 25 µM | > 25 µM | > 25 µM | > 25 µM | > 16.2 µM | > 25 µM | > 25 µM | 11.8 µM | > 25 µM |
| Cc1ccc(/C=C(\C#N)n2nnc3cc(F)c(F)cc32)cc1 | 19.1 µM | > 100 µM | 32.1 µM | 11.4 µM | 14.9 µM | 12.8 µM | 11.3 µM | 34.4 µM | 14.2 µM | 11.2 µM | 1.77 µM | 3.16 µM | 3.43 µM | 2.88 µM | 2.07 µM | 3.33 µM | 3.52 µM | 4.02 µM | 3.65 µM | 0.891 µM |
| COC(=O)c1oc2c(C(=O)/C=C/c3ccc(OC)cc3)c(OCCCN3CCCCC3)ccc2c1C | 4.96 µM | 2.7 µM | 4.43 µM | 2.82 µM | 3.59 µM | 3.78 µM | 3.18 µM | 3.93 µM | 3.17 µM | 3.03 µM | 2.09 µM | 0.872 µM | 0.782 µM | 1.45 µM | 1.61 µM | 1.69 µM | 1.54 µM | 1.8 µM | 1.72 µM | 1.38 µM |
| CCN1C(=O)N(c2c(F)c(OC)cc(OC)c2F)Cc2cnc3[nH]c(CN4CCOCC4)cc3c21 | > 100 µM | > 100 µM | > 100 µM | > 100 µM | > 100 µM | 39.3 µM | > 100 µM | > 100 µM | > 100 µM | > 100 µM | 0.528 µM | 3.05 µM | 1.44 µM | 2.37 µM | 1.32 µM | 3.06 µM | 1.86 µM | 3.83 µM | 16.9 µM | 3.51 µM |
| CC1=C(C)C(=O)C(C(C)C2=C(C)C(=O)C(C)=C(C)C2=O)=C(C)C1=O | > 100 µM | 24.5 µM | > 100 µM | > 100 µM | > 100 µM | 30.4 µM | > 100 µM | > 100 µM | 64.6 µM | 29.8 µM | 28.6 µM | 6.94 µM | 48.9 µM | 19 µM | 53.7 µM | 13.8 µM | 26.7 µM | 15.1 µM | 12.5 µM | 15.7 µM |
| COc1ccccc1Nc1nc(-c2cc3cccc(C(F)(F)F)c3oc2=O)cs1 | > 100 µM | 0.521 µM | > 53 µM | > 82.2 µM | – | > 55.9 µM | > 39.5 µM | 24.2 µM | 0.627 µM | > 100 µM | 0.142 µM | 0.186 µM | 0.257 µM | 0.14 µM | 0.111 µM | 0.516 µM | 0.218 µM | 0.0353 µM | 0.169 µM | 0.144 µM |
| CC(=O)Nc1ccc(C(=O)N[C@@H]2C(=O)N3[C@@H]2SC(C)(C)[C@@H]3C(=O)O)cn1 | > 100 µM | > 100 µM | > 100 µM | > 100 µM | > 100 µM | > 100 µM | > 100 µM | > 100 µM | > 100 µM | > 100 µM | – | – | – | – | – | – | – | – | – | – |
